Values quoted from earlier work as cited in US6486118B1, “Detergent compositions” (Unilever Home & Personal Care USA, division of Conopco, Inc., priority 1999, dated 2002).
Like-named read-outs stand apart in the source and are kept apart here.

[1] = other common materials, by contrast, at 20° C.

| SMILES | Water Solubility (g/100 g) [1] [g/100 g] | Water Solubility (g/100 g) (highly water-soluble materials, grams of solid to form a saturated solution in 100 grams of water at 20° C.) |
| --- | --- | --- |
| O=BO[O-].[Na+] [Sodium perborate anhydrous] | 3.7 | – |
| O=P(O)(O)OP(=O)(O)OP(=O)(O)O [Sodium tripolyphosphate anhydrous] | 15 | – |
| NC(N)=O [Urea] | – | >100 |
